Experiment: xn = mol fraction of the nth substance listed
Details: 263.15 K, Fluid (supercritical or subcritical phases), Vibrating tube method, x1 = 0.97

O=C=O [carbon dioxide] + CO
Details | mass density [kg/m3]
7525 kPa | 1006.96
7550 kPa | 1007.04
7575 kPa | 1007.2
7600 kPa | 1007.28
7625 kPa | 1007.38
7650 kPa | 1007.53
7675 kPa | 1007.61
7700 kPa | 1007.76
7725 kPa | 1007.86
7750 kPa | 1007.94
7775 kPa | 1008.1
7800 kPa | 1008.18
7825 kPa | 1008.35
7850 kPa | 1008.43
7875 kPa | 1008.51
7900 kPa | 1008.68
7925 kPa | 1008.76
7950 kPa | 1008.84
7975 kPa | 1009
8000 kPa | 1009.08
8025 kPa | 1009.16
8050 kPa | 1009.33
8075 kPa | 1009.41
8100 kPa | 1009.54
8125 kPa | 1009.66
8150 kPa | 1009.74
8175 kPa | 1009.86
8200 kPa | 1009.98
8225 kPa | 1010.06
8250 kPa | 1010.23
8275 kPa | 1010.31
8300 kPa | 1010.39
8325 kPa | 1010.56
8350 kPa | 1010.64
8375 kPa | 1010.74
8400 kPa | 1010.88
8425 kPa | 1010.96
8450 kPa | 1011.04
8475 kPa | 1011.21
8500 kPa | 1011.29
8525 kPa | 1011.44
8550 kPa | 1011.54
8575 kPa | 1011.62
8600 kPa | 1011.73
8625 kPa | 1011.86
8650 kPa | 1011.94
8675 kPa | 1012.05
8700 kPa | 1012.19
8725 kPa | 1012.27
8750 kPa | 1012.41
8775 kPa | 1012.52
8800 kPa | 1012.6
8825 kPa | 1012.76
8850 kPa | 1012.85
8875 kPa | 1012.93
8900 kPa | 1013.03
8925 kPa | 1013.17
8950 kPa | 1013.25
8975 kPa | 1013.35
9000 kPa | 1013.49
9025 kPa | 1013.58
9050 kPa | 1013.66
9075 kPa | 1013.83
9100 kPa | 1013.91
9125 kPa | 1013.99
9150 kPa | 1014.08
9175 kPa | 1014.23
9200 kPa | 1014.31
9225 kPa | 1014.39
9250 kPa | 1014.56
9275 kPa | 1014.64
9300 kPa | 1014.72
9325 kPa | 1014.89
9350 kPa | 1014.97
9375 kPa | 1015.05
9400 kPa | 1015.13
9425 kPa | 1015.3
9450 kPa | 1015.38
9475 kPa | 1015.46
9500 kPa | 1015.54
9525 kPa | 1015.7
9550 kPa | 1015.78
9575 kPa | 1015.87
9600 kPa | 1016.03
9625 kPa | 1016.11
9650 kPa | 1016.19
9675 kPa | 1016.28
9700 kPa | 1016.44
9725 kPa | 1016.52
9750 kPa | 1016.6
9775 kPa | 1016.77
9800 kPa | 1016.85
9825 kPa | 1016.93
9850 kPa | 1017.01
9875 kPa | 1017.17
9900 kPa | 1017.25
9925 kPa | 1017.34
9950 kPa | 1017.47
9975 kPa | 1017.58
10000 kPa | 1017.66
10025 kPa | 1017.74
10050 kPa | 1017.83
10075 kPa | 1017.99
10100 kPa | 1018.07
10125 kPa | 1018.15
10150 kPa | 1018.23
10175 kPa | 1018.34
10200 kPa | 1018.48
10225 kPa | 1018.56
10250 kPa | 1018.68
10275 kPa | 1018.81
10300 kPa | 1018.89
10325 kPa | 1018.97
10350 kPa | 1019.09
10375 kPa | 1019.21
10400 kPa | 1019.3
10425 kPa | 1019.38
10450 kPa | 1019.46
10475 kPa | 1019.62
10500 kPa | 1019.7
10525 kPa | 1019.78
10550 kPa | 1019.87
